# Measurements as given in PubChem BioAssay AID340 (DTP/NCI, 2004).
# Values joined by “and” are separate entries in the source; they are usually repeats but may differ in a detail not shown here. Equal values may be shown once. Toxic doses and inconclusive results are not listed.
# Tested on: CD2F1 mice, ip reticulum cell sarcoma, survival T/C
# Assay: NCI In Vivo Anticancer Drug Screen. Data for tumor model Reticulum Cell Sarcoma (Kelley Mouse) (intraperitoneal) in CD2F1 (CDF1) mice
# Settings: endpoint: median survival time, schedule: Q01DX010 (ip), higher = longer survival
# Experimental: The antitumor activity of compounds was measured in mice bearing transplantable tumors. Survival or tumor size were measured and the results are expressed as the measurement made in the treated group (T) divided by the measurement made in the vehicle treated control group (C). The tumor model used in this assay is Reticulum Cell Sarcoma (Kelley Mouse) (intraperitoneal) in CD2F1 (CDF1) mice
# [1] = dose: 1.0 mg/kg/injection, vehicle: saline
# [2] = dose: 2.0 mg/kg/injection, vehicle: saline
# [3] = dose: 8.0 mg/kg/injection, vehicle: saline
# [4] = dose: 16.0 mg/kg/injection, vehicle: saline
# [5] = dose: 64.0 mg/kg/injection, vehicle: saline
# [6] = dose: 6.25 mg/kg/injection, vehicle: saline
# [7] = dose: 12.5 mg/kg/injection, vehicle: saline
# [8] = dose: 25.0 mg/kg/injection, vehicle: saline
# [9] = dose: 2.0 mg/kg/injection, vehicle: other
structure (smiles),measurement,setting,value
N#C[C@@H]1C2C=CC(CC2)[C@H]1C#N,T/C,"dose: 0.25 mg/kg/injection, vehicle: saline",97 % of control
same,T/C,"dose: 0.5 mg/kg/injection, vehicle: saline",102 % of control and 105 % of control
same,T/C,[1],88 % of control and 94 % of control
same,T/C,[2],97 % of control and 100 % of control
CCN(CC)CCNc1ccc(C)c2sc3ccccc3c(=O)c12,T/C,"dose: 100.0 mg/kg/injection, vehicle: saline",106 % of control
same,T/C,"dose: 200.0 mg/kg/injection, vehicle: saline",103 % of control and 106 % of control
Nc1nc(SCc2ccccc2)c2[nH]cnc2n1,T/C,[3],106 % of control
same,T/C,[4],106 % of control
same,T/C,[5],116 % of control
same,T/C,"dose: 128.0 mg/kg/injection, vehicle: saline",112 % of control
C[C@H]1C(=O)O[C@@H]2CCN3CC=C(COC(=O)[C@](C)(O)[C@@]1(C)O)[C@H]23,T/C,"dose: 3.13 mg/kg/injection, vehicle: saline",103 % of control
same,T/C,[6],100 % of control
same,T/C,[7],103 % of control
same,T/C,[8],121 % of control
Clc1ncnc2nc[nH]c12,T/C,"dose: 7.5 mg/kg/injection, vehicle: saline",94 % of control and 111 % of control
same,T/C,"dose: 15.0 mg/kg/injection, vehicle: saline",94 % of control and 100 % of control
same,T/C,"dose: 30.0 mg/kg/injection, vehicle: saline",97 % of control and 102 % of control
same,T/C,"dose: 60.0 mg/kg/injection, vehicle: saline",100 % of control and 105 % of control
Nc1nc2n[nH]nc2c(=O)[nH]1,T/C,"dose: 200.0 mg/kg/injection, vehicle: alkali diluted with saline",115 % of control and 86 % of control
O=C(Nc1ccc(C2=NCCCN2)cc1)c1ccc(C(=O)Nc2ccc(C3=NCCCN3)cc2)cc1,T/C,"dose: 0.5 mg/kg/injection, vehicle: other",117 % of control and 120 % of control
same,T/C,"dose: 1.0 mg/kg/injection, vehicle: other",186 % of control and 202 % of control
same,T/C,[9],248 % of control
COc1ccc2c(c1OC)C(=O)O[C@@H]2[C@H]1c2c(cc3c(c2OC)OCO3)CCN1C,T/C,"dose: 7.8 mg/kg/injection, vehicle: saline",100 % of control
same,T/C,"dose: 15.6 mg/kg/injection, vehicle: saline",100 % of control
same,T/C,"dose: 31.3 mg/kg/injection, vehicle: saline",97 % of control and 102 % of control
same,T/C,"dose: 62.5 mg/kg/injection, vehicle: saline",91 % of control and 97 % of control
same,T/C,"dose: 125.0 mg/kg/injection, vehicle: saline",91 % of control
same,T/C,"dose: 250.0 mg/kg/injection, vehicle: saline",91 % of control
CS(=O)(=O)OCCCCOS(C)(=O)=O,T/C,[6],94 % of control and 105 % of control
same,T/C,[7],97 % of control and 108 % of control
same,T/C,[8],100 % of control and 102 % of control
same,T/C,"dose: 50.0 mg/kg/injection, vehicle: saline",100 % of control and 105 % of control
CS(=O)(=O)OCCN(CCOS(C)(=O)=O)c1ccc(N=O)cc1,T/C,[1],103 % of control and 110 % of control
same,T/C,[2],96 % of control
same,T/C,"dose: 62.5 micrograms/kg/injection, vehicle: saline",116 % of control
same,T/C,"dose: 250.0 micrograms/kg/injection, vehicle: saline",166 % of control
same,T/C,"dose: 500.0 micrograms/kg/injection, vehicle: saline",175 % of control
CN(C)c1nc(N(C)C)nc(N(C)C)n1,T/C,"dose: 18.8 mg/kg/injection, vehicle: saline",100 % of control and 103 % of control
same,T/C,"dose: 37.5 mg/kg/injection, vehicle: saline",93 % of control and 106 % of control
same,T/C,"dose: 75.0 mg/kg/injection, vehicle: saline",100 % of control and 109 % of control
same,T/C,"dose: 150.0 mg/kg/injection, vehicle: saline",100 % of control and 106 % of control
CN(C)c1ccc(/C=C/c2ccnc3ccccc23)cc1,T/C,"dose: 5.0 mg/kg/injection, vehicle: saline",100 % of control
same,T/C,"dose: 10.0 mg/kg/injection, vehicle: saline",100 % of control and 112 % of control
same,T/C,"dose: 20.0 mg/kg/injection, vehicle: saline",96 % of control and 100 % of control
same,T/C,"dose: 40.0 mg/kg/injection, vehicle: saline",96 % of control and 103 % of control
c1ccc(CNc2ncnc3[nH]ncc23)cc1,T/C,[3],100 % of control and 105 % of control
same,T/C,[4],100 % of control and 105 % of control
same,T/C,"dose: 32.0 mg/kg/injection, vehicle: saline",100 % of control and 105 % of control
same,T/C,[5],95 % of control and 97 % of control
O=C(Nc1ccc(C2=NCCN2)cc1)c1ccc(C(=O)Nc2ccc(C3=NCCN3)cc2)c(Cl)c1,T/C,[9],111 % of control and 115 % of control
same,T/C,"dose: 4.0 mg/kg/injection, vehicle: other",113 % of control
same,T/C,"dose: 8.0 mg/kg/injection, vehicle: other",168 % of control
same,T/C,"dose: 16.0 mg/kg/injection, vehicle: other",151 % of control and 197 % of control
same,T/C,"dose: 32.0 mg/kg/injection, vehicle: other",95 % of control
